Source: PubChem BioAssay AID1963447 (Molecular Pharmacology Branch, DTP, NCI, 2024)

System: 885512-296-R-J2-PDC complex spheroid growth, % test/control
Assay: Anticancer human tumor 885512-296-R-J2-PDC patient-derived breast carcinoma cell line growth inhibition [Asc]
Conditions: for IC50: curve of first compound; for viability, T/C: stronger effect = lower value; active = viability on the fitted dose curve at most 10% of control; inactive = the rest
Procedure: Multicellular complex tumor spheroid response to apoptosis pathway targeting inhibitors Alrizomadlin, Pelcitoclax, and Dasminapant in combination with a variety of drugs and investigational agents in selected tumor cell lines
The MDM2 inhibitor alrizomadlin, the Bcl-2/Bcl-xL inhibitor pelcitoclax, and the IAPs inhibitor dasminapant were evaluated both individually and in combination with standard of care and investigational anticancer small molecules within a complex spheroid model of solid tumors. . Complex spheroids include a stromal component modeled by human endothelial cells (HUVEC) and fibroblasts modeled by human mesenchymal stem cells (MSCs). The concentration ranges selected for each drug and investigational agent were based upon clinically achievable concentrations if the clinical Cmax of the agent was known.
Compounds. The drugs and investigational agents: alrizomadlin (APG-115; NSC831270), pelcitoclax (APG-1252; NSC835773), dasminapant (APG-1387;NSC834197), TAK-243 (NSC785004), copanlisib (NSC809693), olaparib (NSC753686), talazoparib (NSC767125), cobimetinib (NSC 768068), eltanexor (KPT-8602, NSC 794443), abemaciclib (NSC 768073), sotorasib (NSC818433), adagrasib (NSC 831453), MRTX-1133 (NSC 836407), Iadademestat (ORY1001, NSC 806812), and RMC-4630 (NSC839698), were obtained from the NCI Developmental Therapeutics Program Chemical Repository. The FDA-approved anticancer drug set is available from the Developmental Therapeutics Program at https://dtp.cancer.gov/organization/dscb/obtaining/available plates.htm. […] The stock solutions were prepared in dimethyl sulfoxide (DMSO, Sigma-Aldrich, St. Louis, MO, cat. D2650) at 800-fold the tested concentration and stored at -70 degrees C prior to their use. All drugs and investigational agents were tested over a range starting from a high concentration at or near the clinical Cmax and decreasing in half-log increments. If the clinical Cmax for an agent had not been determined, the highest concentration tested was 10 microM.
The patient-derived cancer (PDC) cell lines include five colon adenocarcinomas: 186277-243-T-J2-PDC, 616215-338-R-J1-PDC, 439559-082-T-J2-PDC, 463943-066-T-J2-PDC, and 519858-162-T-J1-PDC; three pancreatic carcinomas: 323965-272-R-J2-PDC, 521955-158-R6-J3-PDC, and 521955-158-R2-J5-PDC; two uterine sarcomas: 327498-152-R-J2-PDC and 993429-296-R-J1-PDC; two rhabdomyosarcomas: 755483-174-R-J1-PDC and 772245-204-R-J1-PDC; two soft tissue sarcomas: 126254-015-R-J1-PDC and 494315-158-R-J1-PDC; two malignant fibrous histiocytomas: 317291-083-R-J1-PDC and 596521-263-R-J1-PDC; two breast carcinomas: 171881-019-R-J1-PDC and 885512-296-R-J2-PDC; and one ovarian carcinoma: 6556581-035-R-J-PDC were obtained from the NCI PDMR, (https://pdmr.cancer.gov). The established cell lines HSSY-2 synovial sarcoma (RRID:CVCL 8719), SYO-1 synovial sarcoma (RRID:CVCL_7146), MPNST malignant peripheral neural sheath tumor were obtained from the Sloan Kettering Institute. The following established cell lines were purchased from the American Type Culture Collection (ATCC, Manassas, VA), Sor the received from the NCI repository:, PANC-1 pancreatic carcinoma (CRL-1469, RRID:CVCL_0480), OVCAR-5 ovarian carcinoma (RRID:CVCL_1628), OVCAR-8 ovarian carcinoma (RRID:CVCL_1629), , MCF-7 breast carcinoma (CRL-12584, RRID:CVCL_0031), MDA-MB-231 breast carcinoma (CRL-12532, RRID:CVCL_0062), NCI-H1876 small cell lung carcinoma (CRL-5902, RRID:CVCL_1503), NCI-H510A small cell lung carcinoma (HTB-184, RRID:CVCL_1565), NCI-H1417 (CRL-5869, RRID:CVCL_1469), and NCI-H196 small cell lung carcinoma (CRL-5823, RRID:CVCL_1509). Dr. Peter Houghton (Greehey Children's Cancer Research Institute, University of Texas Health Science Center, San Antonio, TX) provided Rh-18 rhabdomyosarcoma (RRID:CVCL_1659). Pooled donor human umbilical vein endothelial cells (HUVEC, Lonza, cat. CC-2519) and human mesenchymal stem cells (hMSC, Lonza, cat. PT-2501) were purchased from Lonza (Walkersville, MD).
Cell Culture. […]
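Note: spheroids exposed to compounds for seven days.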
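Throughout, for viability, T/C: 100% = DMSO vehicle control wells.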

CCN1CCN(Cc2ccc(Nc3ncc(F)c(-c4cc(F)c5nc(C)n(C(C)C)c5c4)n3)nc2)CC1 + CCN1C(C(=O)NC23CCC(C(=O)O)(CC2)CC3)C(c2cccc(Cl)c2F)C2(C(=O)Nc3cc(Cl)ccc32)C12CCCCC2
> 1000 nM: IC50 (second compound 0.03 µM) | IC50 (second compound 0.0949 µM) | IC50 (second compound 0.3 µM) | IC50 (second compound 0.949 µM)
< 3.16 nM: IC50 (second compound 3 µM)
inactive: viability, T/C (second compound 0.03 µM, first compound 0.00316 µM) 98.5% | viability, T/C (second compound 0.03 µM, first compound 0.01 µM) 101% | viability, T/C (second compound 0.03 µM, first compound 0.0316 µM) 81.3% | viability, T/C (second compound 0.03 µM, first compound 0.1 µM) 76.4% | viability, T/C (second compound 0.03 µM, first compound 0.316 µM) 79.1% | viability, T/C (second compound 0.03 µM, first compound 1 µM) 62% | viability, T/C (second compound 0.0949 µM, first compound 0.00316 µM) 96.1% | viability, T/C (second compound 0.0949 µM, first compound 0.01 µM) 91.8% | viability, T/C (second compound 0.0949 µM, first compound 0.0316 µM) 80.5% | viability, T/C (second compound 0.0949 µM, first compound 0.1 µM) 64.1% | viability, T/C (second compound 0.0949 µM, first compound 0.316 µM) 80.8% | viability, T/C (second compound 0.0949 µM, first compound 1 µM) 59.9% | viability, T/C (second compound 0.3 µM, first compound 0.00316 µM) 74.2% | viability, T/C (second compound 0.3 µM, first compound 0.01 µM) 90.3% | viability, T/C (second compound 0.3 µM, first compound 0.0316 µM) 75.2% | viability, T/C (second compound 0.3 µM, first compound 0.1 µM) 69% | viability, T/C (second compound 0.3 µM, first compound 0.316 µM) 66% | viability, T/C (second compound 0.3 µM, first compound 1 µM) 56.3% | viability, T/C (second compound 0.949 µM, first compound 0.00316 µM) 69.7% | viability, T/C (second compound 0.949 µM, first compound 0.01 µM) 58.7% | viability, T/C (second compound 0.949 µM, first compound 0.0316 µM) 60.3% | viability, T/C (second compound 0.949 µM, first compound 0.1 µM) 50.5% | viability, T/C (second compound 0.949 µM, first compound 0.316 µM) 50.4% | viability, T/C (second compound 0.949 µM, first compound 1 µM) 54.9% | viability, T/C (second compound 3 µM, first compound 0.00316 µM) 41.1% | viability, T/C (second compound 3 µM, first compound 0.01 µM) 35.3% | viability, T/C (second compound 3 µM, first compound 0.0316 µM) 40.8% | viability, T/C (second compound 3 µM, first compound 0.1 µM) 38.7% | viability, T/C (second compound 3 µM, first compound 0.316 µM) 37.3% | viability, T/C (second compound 3 µM, first compound 1 µM) 39.4%
